What was measured:
[1] = test system: Thy 1; assay: Splenocyte cell surface density/distribution (FACS): Thy 1; type: in vivo, mouse (Balb/c female)
Procedure: Another (Group B) is injected with 20 μg (±) methyl 11α,16-dihydroxy-16-methyl-9-oxoprosta-5Z,13E-dien-1-oate as in Example 13. […] A 3 cm incision is made with a scalpel above the left hip, and the spleen is cut free from adjoining tissue and placed in a 100 mn plastic culture dish containing 10 ml PBS. The splenic cells are then made into a suspension, by rubbing the spleens between the rough, frosted ends of microscope slides repeatedly until the only remaining particulate matter is connective tissue. Cells are transferred to a 15 ml conical polystyrene tube and centrifuged in a centrifuge at 1200 rpm for 5 minutes. The supernatant is discarded by aspiration and the cell pellet is resuspended in 10 ml PBS, then centrifuged at 1200 rpm for 5 minutes. The supernatant is aspirated and the cell pellet is resuspended in 15 mM Tris, 140 mM Ammonium Chloride, to lyse red blood cells. After incubating at room temperature for 10 minutes the cell suspension is centrifuged at 1200 rpm for 10 minutes. The supernatant is discarded and the cell pellet is resuspended in 10 ml FACS Buffer (PBS containing 0.1% BSA and 0.1% Sodium Azide). The cell suspension is filtered through sterile glass wool plugged in the top of a pasteur pipet. Cells in the flow through are counted using a hemacytometer, then the cell suspension is centrifuged at 1200 rpm for 5 minutes. The supernatant is discarded and the cell pellet is resuspended in a volume of FACS Buffer that will yield 4×10^7 cells/ml. 10 μl (4×10^5 cells) is added to each well of a 96-well V-bottom plate. 25 μl of diluted monoclonal antibody directed against splenocyte cell surface proteins is added to each well: Major Histocompatability Complex (MHC) Class II (M5114, ATCC, Rockville Md.), MHC Class I (M1/42, ATCC), Anti-IgD (JA12.5, ATCC, Rockville, Md.), Thymocyte (Thy)-1 (JIJ, ATCC), B220 (14.8, ATCC), Kappa light chain (187, ATCC), IL-2 Receptor (7D4, ATCC), Lyt-1 (7.313, ATCC) and CD23 (biotinylated B3B4) and incubated on ice for 30 minutes. 100 μl 10% BSA 0.1% sodium azide is added to each well, then the plates are centrifuged at 1200 rpm for 10 minutes. The liquid is removed by aspiration and the cell pellets are resuspended in 100 μl FACS Buffer, and centrifuged at 1200 rpm for 5 minutes. […] Samples are transferred to individual tubes and 10,000 cells are analyzed. Using the Lysis software (Becton Dickinson, Mountain View, Calif.) the mean channel log fluorescence and percent positive cells are determined for the entire cell population. […]

[2] = test system: Lyt 1; assay: Splenocyte cell surface density/distribution (FACS): Lyt 1; type: in vivo, mouse (Balb/c female)

CCCCC(C)(O)C/C=C/[C@H]1[C@H](O)CC(=O)[C@@H]1C/C=C\CCCC(=O)OC (mixture of isomers) [(±) methyl 11α,16-dihydroxy-16-methyl-9-oxoprosta-5Z,13E-dien-1-oate]
Percentage Positive Cells ([1]; anti-IgD stimulated mice, 20 μg days 3 and 4, day 7 (PBS 14.3)): 23 ± 10% | Mean Channel Log Fluorescence ([1]; anti-IgD stimulated mice, 20 μg days 3 and 4, day 7 (PBS 97)): 98 ± 0 | Percentage Positive Cells ([1]; unstimulated mice, 20 μg (PBS 9.3)): 25.4 ± 3% | Mean Channel Log Fluorescence ([1]; unstimulated mice, 20 μg (PBS 91)): 92 ± 3 | Percentage Positive Cells ([2]; anti-IgD stimulated mice, 20 μg days 3 and 4, day 7 (PBS 31.3)): 30.4 ± 8.8% | Mean Channel Log Fluorescence ([2]; anti-IgD stimulated mice, 20 μg days 3 and 4, day 7 (PBS 110)): 109 ± 2 | Percentage Positive Cells ([2]; unstimulated mice, 20 μg (PBS 31)): 44.5 ± 7% | Mean Channel Log Fluorescence ([2]; unstimulated mice, 20 μg (PBS 110)): 117 ± 6

— US5157052A, “Method for inhibiting IgE production” (priority 1990, dated 1992)
